Laboratory results taken from patent US11673890B2, “N1-pyrazolospiroketone acetyl-CoA carboxylase inhibitors” (Pfizer Inc., priority 2010, dated 2023).

Columns and labels:
[1] = target: T1, recombinant human ACC2 (rhACC2) (Homo sapiens, UniProt O00763, V2141I); test: recombinant hACC2 Transcreener assay (ADP detection FP); assay type: biochemical; conditions: 50 μM ATP, minimum of n=3
T1 construct: a full length Cytomax clone of ACC2 was purchased from Cambridge Bioscience Limited; made in house; host or cells: CHO cells (tetracycline-inducible, pcDNA5 FRT TO-TOPO)
T1 sequence (O00763 whole entry V2141I): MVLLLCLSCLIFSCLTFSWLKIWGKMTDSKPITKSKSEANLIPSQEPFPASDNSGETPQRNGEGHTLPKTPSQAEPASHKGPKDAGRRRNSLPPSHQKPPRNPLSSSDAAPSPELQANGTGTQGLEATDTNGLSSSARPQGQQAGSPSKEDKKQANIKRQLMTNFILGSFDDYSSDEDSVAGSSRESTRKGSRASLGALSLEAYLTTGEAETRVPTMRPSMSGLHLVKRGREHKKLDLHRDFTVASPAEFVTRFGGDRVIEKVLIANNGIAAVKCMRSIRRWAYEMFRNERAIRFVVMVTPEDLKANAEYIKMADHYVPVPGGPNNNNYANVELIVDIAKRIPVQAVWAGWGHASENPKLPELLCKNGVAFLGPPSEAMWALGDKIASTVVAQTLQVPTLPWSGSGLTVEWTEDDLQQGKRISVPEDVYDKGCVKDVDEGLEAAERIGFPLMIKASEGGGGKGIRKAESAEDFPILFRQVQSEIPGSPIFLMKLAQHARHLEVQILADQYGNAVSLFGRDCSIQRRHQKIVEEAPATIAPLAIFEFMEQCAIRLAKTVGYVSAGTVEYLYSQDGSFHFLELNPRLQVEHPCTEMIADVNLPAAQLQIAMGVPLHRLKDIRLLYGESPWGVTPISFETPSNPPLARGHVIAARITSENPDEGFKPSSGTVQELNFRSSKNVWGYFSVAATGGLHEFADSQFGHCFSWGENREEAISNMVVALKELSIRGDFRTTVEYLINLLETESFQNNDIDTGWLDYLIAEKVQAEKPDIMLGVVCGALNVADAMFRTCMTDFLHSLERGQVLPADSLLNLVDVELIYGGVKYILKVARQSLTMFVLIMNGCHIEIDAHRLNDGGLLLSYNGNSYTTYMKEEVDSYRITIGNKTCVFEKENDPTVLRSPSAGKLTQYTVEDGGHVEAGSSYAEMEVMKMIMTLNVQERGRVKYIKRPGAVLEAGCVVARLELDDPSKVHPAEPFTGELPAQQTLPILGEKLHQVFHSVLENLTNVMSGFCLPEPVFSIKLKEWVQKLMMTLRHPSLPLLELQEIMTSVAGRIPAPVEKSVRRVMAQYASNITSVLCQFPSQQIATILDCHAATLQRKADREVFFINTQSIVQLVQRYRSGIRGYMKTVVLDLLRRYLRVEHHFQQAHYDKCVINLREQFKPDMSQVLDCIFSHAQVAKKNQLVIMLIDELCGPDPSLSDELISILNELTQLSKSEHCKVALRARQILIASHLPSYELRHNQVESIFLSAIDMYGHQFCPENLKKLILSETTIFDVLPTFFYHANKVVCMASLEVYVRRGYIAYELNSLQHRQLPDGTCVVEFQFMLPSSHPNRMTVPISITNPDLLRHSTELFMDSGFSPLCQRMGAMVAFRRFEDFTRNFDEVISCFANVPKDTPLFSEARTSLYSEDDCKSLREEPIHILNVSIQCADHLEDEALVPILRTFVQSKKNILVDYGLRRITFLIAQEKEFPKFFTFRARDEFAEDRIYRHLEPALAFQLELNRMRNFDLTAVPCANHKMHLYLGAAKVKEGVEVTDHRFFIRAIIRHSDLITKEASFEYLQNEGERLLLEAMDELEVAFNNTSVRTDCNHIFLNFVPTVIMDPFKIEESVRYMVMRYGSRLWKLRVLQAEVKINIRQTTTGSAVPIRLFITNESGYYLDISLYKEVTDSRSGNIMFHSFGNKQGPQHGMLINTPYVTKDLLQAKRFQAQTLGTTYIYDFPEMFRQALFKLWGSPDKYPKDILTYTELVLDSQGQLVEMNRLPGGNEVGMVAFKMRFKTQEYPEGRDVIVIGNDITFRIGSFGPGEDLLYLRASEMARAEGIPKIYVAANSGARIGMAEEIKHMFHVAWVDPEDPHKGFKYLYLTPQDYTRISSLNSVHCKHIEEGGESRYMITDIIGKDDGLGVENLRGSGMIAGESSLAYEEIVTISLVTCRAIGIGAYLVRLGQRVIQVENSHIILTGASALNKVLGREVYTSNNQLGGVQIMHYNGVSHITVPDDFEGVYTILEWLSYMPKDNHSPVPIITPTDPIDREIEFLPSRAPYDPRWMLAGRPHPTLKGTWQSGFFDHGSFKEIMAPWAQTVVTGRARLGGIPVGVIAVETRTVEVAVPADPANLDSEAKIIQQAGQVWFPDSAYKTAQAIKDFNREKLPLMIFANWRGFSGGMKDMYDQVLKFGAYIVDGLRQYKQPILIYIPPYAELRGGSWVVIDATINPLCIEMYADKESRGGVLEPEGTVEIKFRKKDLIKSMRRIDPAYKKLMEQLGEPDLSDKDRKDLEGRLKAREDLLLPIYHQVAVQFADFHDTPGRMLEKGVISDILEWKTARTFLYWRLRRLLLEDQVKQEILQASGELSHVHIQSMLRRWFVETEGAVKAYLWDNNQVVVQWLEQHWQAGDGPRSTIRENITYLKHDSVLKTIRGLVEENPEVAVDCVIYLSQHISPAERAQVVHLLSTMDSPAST
Description: For example direct inhibition of ACC activity, for the compound of Formula (1) was determined using preparations of recombinant human ACC1 (rhACC1) and recombinant human ACC2 (rhACC2). Representative sequences of the recombinant human ACC1 and ACC2 that can be used in the assay are provided in FIG. 1 (SEQ ID NO. 1) and FIG. 2 (SEQ. ID NO. 2), respectively.
[3] Preparation of rhACC2. Human ACC2 inhibition was measured using purified recombinant human ACC2 (hrACC2). Briefly, a full length Cytomax clone of ACC2 was purchased from Cambridge Bioscience Limited and was sequenced and subcloned into PCDNA5 FRT TO-TOPO (Invitrogen, Carlsbad, Calif.). The ACC2 was expressed in CHO cells by tetracycline induction and harvested in 5 liters of DMEM/F12 with glutamine, biotin, hygromycin and blasticidin with 1 μg/mL tetracycline (Invitrogen, Carlsbad, Calif.). The conditioned medium containing ACC2 was then applied to a Softlink Soft Release Avidin column (Promega, Madison, Wis.) and eluted with 5 mM biotin. 4 mgs of ACC2 were eluted at a concentration of 0.05 mg/mL (determined by A280) with an estimated purity of 95% ([…]). The purified ACC2 was dialyzed in 50 mM Tris, 200 mM NaCl, 4 mM DTT, 2 mM EDTA, and 5% glycerol. The pooled protein was frozen and stored at −80° C., with no loss of activity upon thawing. For measurement of ACC2 activity and assessment of ACC2 inhibition, test compounds were dissolved in DMSO and added to the rhACC2 enzyme as a 5× stock with a final DMSO concentration of 1%.
[4] Measurement of human ACC2 inhibition. hACC2 was assayed in a Costar #3676 (Costar, Cambridge, Mass.) 384-well plate using the Transcreener ADP detection FP assay kit (Bellbrook Labs, Madison, Wis.) using the manufacturer's recommended conditions for a 50 uM ATP reaction. The final conditions for the assay were 50 mM HEPES, pH 7.2, 5 mM MgCl2, 5 mM tripotassium citrate, 2 mM DTT, 0.1 mg/mL BSA, 30 μM acetyl-CoA, 50 μM ATP, and 8 mM KHCO3. Typically, a 10 μl reaction was run for 50 min at 25° C., and 10 μl of Transcreener stop and detect buffer was added and the combination incubated at room temp for an additional 1 hour. The data was acquired on an Envision Fluorescence reader (Perkinelmer) using a 620 excitation Cy5 FP general dual mirror, 620 excitation Cy5 FP filter, 688 emission (S) and a 688 (P) emission filter.
The results using the recombinant hACC1 and recombinant hACC2 Transcreener assays described above are summarized in the table below for the Compounds of Formula (I) exemplified in the Examples above. All of the examples in both assays were run with a minimum of n=3.

[2] = target: T2, recombinant human ACC1 (rhACC1) (Homo sapiens, UniProt Q13085, DEL44-44); test: recombinant hACC1 Transcreener assay (ADP detection FP); assay type: biochemical; conditions: recombinant hACC1 Transcreener assay, 50 μM ATP, minimum of n=3; read-out: hACC1
T2 construct: infected with recombinant baculovirus containing full length human ACC1 cDNA; made in house; host or cells: SF9 insect cells (baculovirus)
Description: For example direct inhibition of ACC activity, for the compound of Formula (1) was determined using preparations of recombinant human ACC1 (rhACC1) and recombinant human ACC2 (rhACC2).
[1] Preparation of rhACC1. Two liters of SF9 cells, infected with recombinant baculovirus containing full length human ACC1 cDNA, were suspended in ice-cold lysis buffer (25 mM Tris, pH 7.5; 150 mM NaCl; 10% glycerol; 5 mM imidazole (EMD Bioscience; Gibbstown, N.J.); 2 mM TCEP (BioVectra; Charlottetown, Canada); Benzonase nuclease (10000 U/100 g cell paste; Novagen; Madison, Wis.); EDTA-free protease inhibitor cocktail (1 tab/50 mL; Roche Diagnostics; Mannheim, Germany). Cells were lysed by 3 cycles of freeze-thaw and centrifuged at 40,000×g for 40 minutes (4° C.). Supernatant was directly loaded onto a HisTrap FF crude column (GE Healthcare; Piscataway, N.J.) and eluted with an imidazole gradient up to 0.5 M over 20 column volumes (CV). ACC1-containing fractions were pooled and diluted 1:5 with 25 mM Tris, pH 7.5, 2 mM TCEP, 10% glycerol and direct loaded onto a CaptoQ (GE Healthcare) column and eluted with an NaCl gradient up to 1 M over 20 CV's. Phosphate groups were removed from purified ACC1 by incubation with lambda phosphatase (100 U/10 μM target protein; New England Biolabs; Beverly, Mass.) for 14 hours at 4° C.; okadaic acid was added (1 μM final concentration; Roche Diagnostics) to inhibit the phosphatase. Purified ACC1 was exchanged into 25 mM Tris, pH 7.5, 2 mM TCEP, 10% glycerol, 0.5 M NaCl by 6 hour dialysis at 4° C. Aliquots were prepared and frozen at −80° C.
[2] […] The final conditions for the assay were 50 mM HEPES, pH 7.2, 10 mM MgCl2, 7.5 mM tripotassium citrate, 2 mM DTT, 0.1 mg/mL BSA, 30 μM acetyl-CoA, 50 μM ATP, and 10 mM KHCO3. Typically, a 10 μl reaction was run for 120 min at 25° C., and 10 μl of Transcreener stop and detect buffer was added and the combination incubated at room temp for an additional 1 hour.
All of the examples in both assays were run with a minimum of n=3.

IC50 [1] [nM] | IC50 [2] [nM] | Molecule
14.6 | 4.5 | CC(C)(C)n1ncc2c1C(=O)CC1(CCN(C(=O)c3cc4c(-c5ccc(C(=O)O)cc5)cccc4[nH]3)CC1)C2 [Example 18, 4-{2-[(1-tert-butyl-7-oxo-1,4,6,7-tetrahydro-1′H-spiro[indazole-5,4′-piperidin]-1′-yl)carbonyl]-1H-indol-4-yl}benzoic acid]
12.5 | 32.6 | CC(C)n1ncc2c1C(=O)CC1(CCN(C(=O)c3cc4c(-c5cccc(C(=O)O)c5)nccc4[nH]3)CC1)C2 [Example 35, 3-{2-[(1-isopropyl-7-oxo-1,4,6,7-tetrahydro-1′H-spiro[indazole-5,4′-piperidin]-1′-yl)carbonyl]-1H-pyrrolo[3,2-c]pyridin-4-yl}benzoic acid]
30.4 | 39.9 | CC(C)n1ncc2c1C(=O)CC1(CCN(C(=O)c3ccc(-c4ccc(C(=O)O)cc4)nc3NCC(F)(F)F)CC1)C2 [Example 42, 4-{5-[(1-isopropyl-7-oxo-1,4,6,7-tetrahydro-1′H-spiro[indazole-5,4′-piperidin]-1′-yl)carbonyl]-6-[(2,2,2-trifluoroethyl)amino]pyridin-2-yl}benzoic acid]
84.1 | 59.6 | COc1cc(C(=O)N2CCC3(CC2)CC(=O)c2c(cnn2C(C)C)C3)cc(-c2cccc(C(=O)O)c2)n1 [Example 2, 3-(4-(1-Isopropyl-7-oxo-1,4,6,7-tetrahydrospiro[indazole-5,4′-piperidine]-1′-ylcarbonyl)-6-methoxypyridin-2-yl)benzoic acid]
7.88 | 6.11 | CC(C)n1ncc2c1C(=O)CC1(CCN(C(=O)c3cc4c(-c5cccc(C(=O)O)c5)cccc4[nH]3)CC1)C2 [Example 15, 3-{2-[(1-isopropyl-7-oxo-1,4,6,7-tetrahydro-1′H-spiro[indazole-5,4′-piperidin]-1′-yl)carbonyl]-1H-indol-4-yl}benzoic acid]
29.8 | 29.1 | CC(C)n1ncc2c1C(=O)CC1(CCN(C(=O)c3cc(-c4cccc(C(=O)O)c4)c4cc[nH]c4c3)CC1)C2 [Example 39, 3-{6-[(1-isopropyl-7-oxo-1,4,6,7-tetrahydro-1′H-spiro[indazole-5,4′-piperidin]-1′-yl)carbonyl]-1H-indol-4-yl}benzoic acid]
6.1 | 10.2 | CC(C)n1ncc2c1C(=O)CC1(CCN(C(=O)c3cc4c(-c5cccc(C(=O)O)c5)cncc4[nH]3)CC1)C2 [Example 40, 3-{2-[(1-isopropyl-7-oxo-1,4,6,7-tetrahydro-1′H-spiro[indazole-5,4′-piperidin]-1′-yl)carbonyl]-1H-pyrrolo[2,3-c]pyridin-4-yl}benzoic acid]
685 | 1010 | CC(C)n1ncc2c1C(=O)CC1(CCN(C(=O)c3cc(C(=O)O)cc(-c4ncco4)c3)CC1)C2 [Example 22, 3-[(1-isopropyl-7-oxo-1,4,6,7-tetrahydro-1′H-spiro[indazole-5,4′-piperidin]-1′-yl)carbonyl]-5-(1,3-oxazol-2-yl)benzoic acid]
25.7 | 32.5 | CC(C)n1ncc2c1C(=O)CC1(CCN(C(=O)c3nc4cc(-c5cccc(C(=O)O)c5)ccc4[nH]3)CC1)C2 [Example 47, 3-{2-[(1-isopropyl-7-oxo-1,4,6,7-tetrahydro-1′H-spiro[indazole-5,4′-piperidin]-1′-yl)carbonyl]-1H-benzimidazol-5-yl}benzoic acid]
133 | 98.4 | CNc1ncc(-c2cccc(C(=O)O)c2)cc1C(=O)N1CCC2(CC1)CC(=O)c1c(cnn1C(C)C)C2 [Example 43, 3-{5-[(1-isopropyl-7-oxo-1,4,6,7-tetrahydro-1′H-spiro[indazole-5,4′-piperidin]-1′-yl)carbonyl]-6-(methylamino)pyridin-3-yl}benzoic acid]
12.5 | 31.8 | CC(C)n1ncc2c1C(=O)CC1(CCN(C(=O)c3cc(-c4cccc(C(=O)O)c4)nc(N(C)C)c3)CC1)C2 [Example 32, 3-{6-(dimethylamino)-4-[(1-isopropyl-7-oxo-1,4,6,7-tetrahydro-1′H-spiro[indazole-5,4′-piperidin]-1′-yl)carbonyl]pyridin-2-yl}benzoic acid]
42.6 | 55.8 | CC(C)n1ncc2c1C(=O)CC1(CCN(C(=O)c3cc4c(-c5ccc(C(=O)O)cc5)ncnc4[nH]3)CC1)C2 [Example 34, 4-{6-[(1-isopropyl-7-oxo-1,4,6,7-tetrahydro-1′H-spiro[indazole-5,4′-piperidin]-1′-yl)carbonyl]-7H-pyrrolo[2,3-d]pyrimidin-4-yl}benzoic acid]
420 | 1370 | CC(C)Nc1nc(-c2cccc(C(=O)O)c2)ccc1C(=O)N1CCC2(CC1)CC(=O)c1c(cnn1C(C)C)C2 [Example 23, 3-{6-(isopropylamino)-5-[(1-isopropyl-7-oxo-1,4,6,7-tetrahydro-1′H-spiro[indazole-5,4′-piperidin]-1′-yl)carbonyl]pyridin-2-yl}benzoic acid]
35.5 | 30.1 | COc1cc(C(=O)N2CCC3(CC2)CC(=O)c2c(cnn2C(C)(C)C)C3)cc(-c2ccc(C(=O)O)cc2)n1 [Example 10, 4-{4-[(1-tert-butyl-7-oxo-1,4,6,7-tetrahydro-1′H-spiro[indazole-5,4′-piperidin]-1′-yl)carbonyl]-6-methoxypyridin-2-yl}benzoic acid]

Molecule | IC50 [1] [nM] | IC50 [2] [nM]
4-{5-[(1-tert-butyl-7-oxo-1,4,6,7-tetrahydro-1′H-spiro[indazole-5,4′-piperidin]-1′-yl)carbonyl]-6-(ethylamino)pyridin-2-yl}benzoic acid [Example 13] | 143 | 221
4-{6-(ethylamino)-5-[(1-isopropyl-7-oxo-1,4,6,7-tetrahydro-1′H-spiro[indazole-5,4′-piperidin]-1′-yl)carbonyl]pyridin-2-yl}benzoic acid [Example 14] | 76.1 | 139
3-{2-[(1-isopropyl-7-oxo-1,4,6,7-tetrahydro-1′H-spiro[indazole-5,4′-piperidin]-1′-yl)carbonyl]-1H-benzimidazol-4-yl}benzoic acid [Example 45] | 10 | 4.9
